# Data from US12427212B2, “Nectin-4 binding miniproteins, conjugates and uses thereof” (Aktis Oncology, Inc., priority 2023, dated 2025).
# Entries after “also recorded” stand apart in the source; their conditions may differ. Read-outs that look alike come from different tables or passages of the source. Bridges are numbered along the chain shown (N, C = ends). Primed or numbered codes have the meaning given here. The star is where a group is joined. DOTA = O=C(O)CN1CCN(CC(=O)O)CCN(CC(=O)*)CCN(CC(=O)O)CC1; PEG4 = NCCOCCOCCOCCOCCC(=O)O; PEG4′ = not defined here
# Tests used:
# Nectin-4 [1] = target: T1, Nectin-4 (Homo sapiens, UniProt Q96NY8); test: DELFIA competitive binding assay (Ki) against Eu-labeled C307 on HT-1376 cells; details: in the presence of europium-labeled C307
# T1 sequence (Q96NY8 32-510): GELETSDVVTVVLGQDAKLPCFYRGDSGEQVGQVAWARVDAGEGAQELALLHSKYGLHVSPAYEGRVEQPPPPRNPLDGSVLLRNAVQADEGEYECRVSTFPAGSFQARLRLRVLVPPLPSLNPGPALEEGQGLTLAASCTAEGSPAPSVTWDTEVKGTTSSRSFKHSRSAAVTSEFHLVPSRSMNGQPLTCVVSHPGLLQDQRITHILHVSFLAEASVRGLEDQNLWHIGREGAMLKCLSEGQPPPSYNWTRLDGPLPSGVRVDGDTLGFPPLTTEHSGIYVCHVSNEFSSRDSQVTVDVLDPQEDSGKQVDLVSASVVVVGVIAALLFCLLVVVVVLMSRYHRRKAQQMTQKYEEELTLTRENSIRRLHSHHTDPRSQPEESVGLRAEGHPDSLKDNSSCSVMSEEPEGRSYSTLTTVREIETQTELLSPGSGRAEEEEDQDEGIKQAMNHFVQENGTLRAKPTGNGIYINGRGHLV
# Description: A competition binding assay was utilized to determine the Ki for miniproteins bound to Nectin-4 expressed on the surface of cancer cells. […] Miniprotein incubations occurred for 90 min to reach binding equilibrium. […] After miniprotein incubations, the wells were washed to remove unbound ligand and treated according to manufacturer instructions for a DELFIA® (dissociation-enhanced lanthanide fluorescent immunoassay, Revvity Health Sciences). In brief, washed wells were incubated with 15 μL of 2 M HCl for 2 h at 37° C., after which 17 μL of 2 M NaOH and 30 μL of DELFIA® enhancement solution were added to each well and incubated for an additional 30 min. The remaining Eu reacted with the DELFIA® enhancer solution to generate fluorescence measured on the Envision instrument. Relative fluorescence units (RFUs) were measured as a function of test article concentration in order to calculate an IC50.
# A whole cell binding assay was used to estimate the equilibrium binding affinity (KD) or binding inhibition constant (Ki) of miniprotein ligands to cells expressing a target of interest. Cells were dispensed into a 384-well plate and incubated at 37° C., in 5% CO2 overnight. The next day cells were gently washed once in assay buffer prior to addition of europium chelated ligand. […] For Ki determination, a single concentration (KD equivalent concentration) of europium-chelate miniprotein was added to each well followed immediately by the addition of unconjugated competing ligand over 12 different concentrations ranging from 100 times below and above expected Ki values as before. The plate was incubated for 1.5 h at room temperature to reach binding equilibrium. Cells were then washed three times at room temperature with 1×PBS followed by the addition of 2 M HCl and incubated for two h at 37° C. Following this step, 2 M NaOH and fluorescent inducer solution were added to each well and incubated for 30 minutes at room temperature according to the manufacturer's protocol (Perkin-ELMER DELFIA assay). Plates were read on an Envision plate reader and a curve-fitting model was applied to estimate KD and Ki values using GraphPad Prism software.
# Engineered Nectin-4 miniproteins with further modified lysine residues (C298-C304; as described in Example 4B) were evaluated for their ability to bind to Nectin-4.
# Nectin-4 [2] = target: T1, Nectin-4; test: Flow cytometry binding to Nectin-4-expressing (HT-1376-P) and knockout (HT-1376-KO) cells; type: cell-based; details: biotinylated miniprotein
# Description: Fluorescent imaging for Nectin-4 binding was conducted using assays as described in Example 3. Briefly. Nectin-4 knockout HT-1376 cells were generated via CRISPR/Cas9 mediated gene deletion followed by single cell cloning. […] Flow cytometry was performed to measure on-target binding to cell surface Nectin-4.
# [3] = test system: un-transfected HEK293 cells; test: Background binding to un-transfected HEK293 cells (cell microarray suitability); type: cell-based, human; details: biotin-labeled molecules
# Description: To evaluate potential off-target binding, six biotin-labeled molecules were tested in a cell microarray platform having 6,416 different human proteins spanning diverse functions and subcellular locations.
# HT-1376 cells = test: Internalization assay of indium-111 radiolabeled conjugate, HT-1376; type: cell-based, human; details: 37° C. or 4° C., 1 h
# Description: (§1) Internalization was assessed for indium-111 radiolabeled C215 in HT-1376 and MCF7 cells. Cells were incubated in the presence of radioligand or radioligand plus 1000 times excess unlabeled compound (C215) at 37° C., or 4° C. for 1 h. At the end of incubation cells were washed four times with PBS and membrane bound radioligand was removed by three 0.5% trypsin washes. Cell suspensions were washed three times by method of centrifugation and removal of supernatant. Internalized radioactivity was measured by gamma counting cell pellets and cell number was determined by counting cells on an automatic cell counter. […] C215, in HT-1376 (FIG. 6A) and MCF7 cell lines (FIG. 6B).
# MCF7 cells = test: Internalization assay of indium-111 radiolabeled conjugate, MCF7; type: cell-based, human; details: 37° C. or 4° C., 1 h
# Description: as §1
# [4] = test system: HT-1376 urothelial cancer cells; test: In vitro cell cytotoxicity assay of 225Ac-radioconjugates (CellTiter-Glo); type: cell-based, human; details: compound radiolabeled with 225Ac, 24 h treatment, 4-5 day regrowth, HT-1376 cells
# Description: Cytotoxicity to ^225Ac-radioconjugates was assessed in HT-1376 urothelial cancer cells. Cells were seeded in 96-well plates at densities of 250 to 1000 cells per well two days prior to treatment. On the day of treatment ^225Ac-radioconjugates were diluted in culture medium to concentrations ranging from 0,0001 to 100 μCi/mL and treatment solutions were incubated with cells for 24 h. At the end of the treatment period, the treatment solution was removed, and fresh culture medium was replenished for the regrowth period of the assay that lasted 4-5 day's. At the end of the regrowth period the culture medium was removed and viability was assessed by CellTiter-Glo (Promega, Waltham MA) luminescent assay and the plates were read on a Perkin Elmer Enspire multimode plate reader. Data were normalized to treatment controls and plotted as non-linear sigmoidal dose response curves to determine the effective concentration for 50% reduction in cell viability.
# [5] = Thermal stability assay, 75° C., HPLC; type: physicochemical; details: 1 mg/mL, 0.9% saline solution
# Description: The thermal stability of an exemplary compound, C215, was analyzed at a concentration of 1 mg/mL at 75° C., in 0.9% saline solution. A heating plate was set to 75° C. and the sample was heated for a period of one h. The vial was shaken prior to collecting 10 μL aliquots at 5, 10, 15, 30, and 60 minute time intervals. The % parent remaining was analyzed by HPLC using the following system and method: Analytical Agilent 1100 HPLC system using a 4.6×250 mm, 300 Angstrom. BEH300, 5 μm, Xbridge C18 column at 1.0 mL/min. The solvent system consisted of A=Water+0.1% TFA, B=Acetonitrile+0.1% TFA. The gradient consisted of 5% to 70% B over 15 minutes, then the column was washed and equilibrated to initial conditions.
# [6] = previously published; cited from earlier work
# [7] = test system: HT-1376-cells ("Parental", which express Nectin-4); test: In vivo efficacy in cell-line derived xenograft (CDX) model, HT-1376 parental; design: species or system mouse; details: 3 mg/kg IV QWx3; versus vehicle
# Description: In vivo efficacy study experiments were performed in tumor bearing athymic nude mice. […] Tumors were monitored for a minimum of 14 days prior to group stratification and study initiation dates.
# Dose measurements for a sample injected dose were measured and confirmed on a gamma counter and corrected for decay. EV doses were calculated based on mouse weights and liquid concentration of prepared material. Indicated doses of vehicle, EV or radiolabeled C251 were prepared corresponding to the indicated administered dose levels per group. Doses were administered via tail vein injection while restrained and awake.
# Animal monitoring: Tumor volume (caliper measurement) and body weight measurements for enrolled mice were performed twice a week for an initial planned monitoring period of 8 weeks. More frequent gross observations of mice were performed.
# Hunan endpoints: Mice remained on study until they reached the end of the 8-week monitoring period or a number of pre-defined humane endpoints, including: • 1. An increase in tumor volume size that exceeds >1500 mm^3, or 20 mm in one dimension, or tumor becomes ulcerated or necrotic. • 2. A decrease in body weight ≥20% from maximum recorded weight. • 3. Any signs of pain or distress (i.e., consistent hunched posture, rough coat, squinted eyes, slowed gait). • 4. Tumors that compromise mobility or ability to eat or drink. • 5. BCS score ≤2. […]
# Nectin-4 [8] = target: T1, Nectin-4; details: cited from earlier work
# [9] = test system: HT-1376 urothelial cancer cells; test: Radioligand binding of lutetium-177 radioconjugates, saturation and kinetic analysis; design: species or system human; details: lutetium-177 radioconjugates of PEG4-DOTA compounds, HT-1376 cells, global fit of association and dissociation
# Description: Radioligand binding was performed in HT-1376 urothelial cancer cells by method of saturation. Cells were seeded at 20,000 cells per well in 96-well format 48 h prior to assay. Lutetium-177-labeled radioconjugates of C215 and C117 were incubated with cells at 4° C. for 1 h at various increasing concentrations of radioligand. At the end of incubation, cells were washed three times with PBS and radioactivity was quantified by gamma counting as shown in FIGS. 4A-5B.
# Radioligand binding was performed in HT-1376 urothelial cancer cells by method of kinetic analysis. Cells were seeded at 20,000 cells per well in 96-well format 48 h prior to assay. On the day of assay, culture medium was removed and PBS was added to cells. Association kinetics were measured at three concentrations of radioligand, and this was performed by the addition of lutetium-177 radioconjugates to cells at various time points from 1 to 60 minutes.
# [10] = In vivo biodistribution of 111In-labeled miniproteins by SPECT/CT, HT-1376 xenograft; design: species or system mouse; details: female, athymic nude, mouse, in vivo
# How it was run: (§2)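 Mice bearing HT-1376 (Nectin-4-expressing human) xenografts imaged by SPECT/CT after 111In-labeled miniprotein dosing. SPECT reported as activity; per-subject maximum intensity projections scaled in % ID/g at each time point.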
# HT-1376 tumor xenograft = test: as above; design: species or system mouse; details: 111In-labeled, tumor, +4 h, HT-1376 xenograft mice
# How it was run: as §2
# [11] = PhII trial, locally advanced or metastatic bladder cancer, 10.2 months median follow up
molecule,measurement,setting,value
CC[C@H](C)[C@@H]1NC(=O)[C@H](Cc2ccc(O)cc2)NC(=O)[C@H](CCC(N)=O)NC(=O)[C@@H]2CSSC[C@@H](C(=O)N[C@@H](CO)C(=O)O)NC(=O)CNC(=O)[C@H](CC(C)C)NC(=O)[C@H](CC(N)=O)NC(=O)[C@H](CC(=O)O)NC(=O)[C@H](CC(C)C)NC(=O)[C@H]([C@@H](C)CC)NC(=O)[C@H](CCC(=O)O)NC(=O)[C@H](CCC(=O)O)NC(=O)[C@H]([C@@H](C)CC)NC(=O)[C@H](CSSC[C@H](NC(=O)CCOCCOCCOCCOCCNC(=O)CCCC[C@@H]3SC[C@@H]4NC(=O)N[C@@H]43)C(=O)N[C@@H](CCC(=O)O)C(=O)N[C@@H](Cc3ccc(O)cc3)C(=O)N[C@@H](CC(=O)O)C(=O)N[C@@H](CCC(=O)O)C(=O)N[C@@H](CCC(=O)O)C(=O)N[C@@H](Cc3ccccc3)C(=O)N[C@@H](Cc3ccccc3)C(=O)N[C@@H]([C@@H](C)O)C(=O)N[C@@H](C)C(=O)N[C@@H](CC(C)C)C(=O)N[C@@H](C)C(=O)N[C@@H](CCCNC(=N)N)C(=O)N[C@@H](CC(C)C)C(=O)N[C@@H](CCCNC(=N)N)C(=O)NCC(=O)NCC(=O)N[C@@H](CC(=O)O)C(=O)N[C@@H]([C@@H](C)CC)C(=O)N2)NC(=O)[C@H](CC(C)C)NC(=O)[C@H](C)NC(=O)[C@@H]2CCCN2C(=O)[C@H](CC(C)C)NC(=O)[C@H](Cc2ccc(O)cc2)NC(=O)[C@H](CCC(N)=O)NC(=O)[C@H](Cc2ccccc2)NC(=O)[C@H](CCCC[N+](C)(C)C)NC(=O)[C@H](C)NC(=O)[C@H](CCC(N)=O)NC1=O [Compound C253],binding to endogenous Nectin-4 expressed on HT-1376 cells (FIG. 21),Nectin-4 [1],high binding affinity
same,"on-target binding to cell surface Nectin-4, HT-1376-P versus HT-1376-KO cells",Nectin-4 [2],potent and highly selective Nectin-4 targeting agent; also recorded: selective target binding
same,Background binding to un-transfected HEK293 cells,[3],low-background binding
C215 ({DOTA-PEG4′}-CEYDEEFFTALKRLRGGDICYYIKKKFKKVPKLCIEEILDKLGC-NH2; cysteine pairing not given here) [Compound C215],internalization of radioconjugate,HT-1376 cells,successfully internalized into cells
same,internalization of radioconjugate,MCF7 cells,successfully internalized into cells
same,EC50 (microcurie/milliliter) for 225Ac radioconjugates,[4],0.086 microcurie/milliliter
same,"thermal stability, % parent remaining",[5],remain stable over 60 min
enfortumab vedotin,Plasma terminal half-life (min),[6],"2,476.8 (1.72 days) min"
enfortumab vedotin [EV],Tumor volume,[7],Some reduction in tumor volume
same,overall tumor objective response rate (ORR),"Nectin-4 [8]; PhI study, patients previously treated with ICI therapy",42%
same,ORR,"Nectin-4 [8]; PhI study, patients with particularly high tumor burden (liver metastases)",36%
same,ORR,Nectin-4 [8]; [11],44%
same,complete response rate (CRR),Nectin-4 [8]; [11],12%
"{DOTA-PEG4}-CEYDEEFFTALKRLRGGDICYYIQAKFQYLPKLCIEEILDNLGCS-OH (disulfide 1-34, 20-44 (inferred)) [Compound C117]",Kd,[9],2.64 nM
same,tissue uptake at 4 h,[10],150 %ID/g
same,tissue uptake at 24 h,[10],93.3 %ID/g
same,Data of Biodistribution (+4 h Tumor~% ID/g),HT-1376 tumor xenograft,2.29 % ID/g
same,EC50 (microcurie/milliliter) for 225Ac radioconjugates,[4],0.014 microcurie/milliliter
